Experimental data: patent US20250282798A1, “HETEROARYL-SUBSTITUTED BICYCLIC COMPOUND AND USE THEREOF” (Medshine Discovery Inc., priority 2022, published 2025)
pIC50: −log10 of the molar value.

Legend:
human GLK = human GLK (Homo sapiens (Human), UniProt Q8IVH8); assay: Kinase activity assay using ADP-Glo method, GLK; format: biochemical; details: GLK enzyme concentration 8 nM; ATP 20 μM
Description: The IC50 value was assayed by the kinase activity assay using ADP-Glo method to evaluate the inhibitory ability of a test compound on human GLK.
Enzyme buffer conditions: 50 mM Hepes (pH 7.5), 10 mM MgCl2, 1 mM EGTA, 0.01% Brij35, 2 mM DTT.
Preparation of the mixture of kinase and substrate: the concentration of GLK in the reaction solution was 8 nM, the concentration of ATP was […], and the concentration of MBP was 0.05 mg/mL.
(§1) Assay steps: A compound was diluted 4-fold with DMSO in a dilution plate, with a final initial concentration of […] and 10 concentration gradient points. The compound was diluted 50-fold into the kinase reaction buffer, and the mixture was shaken on a shaker for 20 minutes. The kinase was prepared with the enzyme reaction buffer. 2 μL of kinase was added to each well of a reaction plate. 1 μL of the diluted compound in the buffer was added to each well. The plate was sealed with a sealing film, centrifuged at 1000 g for 30 seconds, and placed at room temperature for 10 minutes. The mixed solution of ATP/MBP was prepared with the enzyme reaction buffer. 2 μL of the mixed solution of ATP/MBP was added to the reaction plate. The plate was sealed with a sealing film, and centrifuged at 1000 g for 30 seconds. The mixture in the plate was reacted at room temperature for 60 minutes. 4 μL of ADP-Glo was transferred to the 384 reaction plate, and centrifuged at 1000 rpm/min for 1 min. The plate was incubated at 25° C. for 40 min. 8 μL of detection solution was transferred to the 384 reaction plate, and centrifuged at 1000 rpm/min for 1 min. The plate was incubated at 25° C. for 40 min. The RLU (relative luminescence unit) signal was read with a BMG microplate reader, and the signal intensity was used to characterize the activity of the kinase.
(§2) The kinase activity data were expressed as the comparison of the kinase activity of a group with a test compound and the kinase activity of the blank group (containing only DMSO). The IC50 value was obtained by curve fitting using Prism software (GraphPad7.0).

[1] = In vitro metabolic stability in human liver microsomes; format: in vitro ADME; details: 1 μM compound, 0.5 mg/mL protein
Description: The in vitro metabolic stability of the compounds of the present disclosure in human was investigated by the metabolic stability in human liver microsomes.
Assay conditions: 1 μM of a compound was incubated with human liver microsomes supplemented with NADPH regeneration system at 37° C. for a certain period of time up to 60 minutes. The concentration of the compound in the resulting sample was assayed by LC-MS/MS method.
Assay procedure: 96-well incubation plates were named T0, T5, T15, T30, T45, T60, Blank60 and NCF60, respectively. The reaction time corresponding to the incubation plates were 0, 5, 15, 30, 45 and 60 minutes, respectively. No test sample or control compound was added to the Blank60 plate, and samples were taken after 60 minutes of incubation. Potassium phosphate buffer was used instead of NADPH regeneration system solution in the NCF60 plate, and the plate was incubated for 60 minutes. All the samples of the time points were from a single well.
5 μL of a test sample or control sample working solution and 100 μL of microsome working solution (the concentration of liver microsome protein was 0.5 mg/mL) were added to the T0, T5, T15, T30, T45, T60 and NCF60 plates, respectively. Only microsome working solution was added to the Blank60 plate. Then, the Blank60, T5, T15, T30, T45 and T60 plates, except TO and NCF60 plates, were placed in a 37° C. water bath, and preincubated for about 10 minutes.
180 μL of stop solution (the stop solution was a solution of tolbutamide (100 ng/mL) in acetonitrile and methanol (95:5, V/V)) was firstly added to the sample of TO plate, and then the NADPH regeneration system working solution was added.
50 μL of potassium phosphate buffer was added to each well of the NCF60 plate, and the plate was incubated for 60 minutes.
After the pre-incubation of Blank60, T5, T15, T30, T45 and T60 plates, 44 μL of NADPH regeneration system working solution was added to each sample well to initiate the reaction. Therefore, for the sample wells containing a test sample or control sample working solution, the final concentration of the reaction was […], the concentration of liver microsomes was 0.5 mg/mL, and the final concentrations of DMSO and acetonitrile in the reaction system were 0.01% (v/v) and 0.99% (v/v), respectively.
After being incubated for an appropriate time (e.g., 5, 15, 30, 45, and 60 min), 180 μL of stop solution was added to each well of the test sample and control sample of Blank60, T5, T15, T30, T45, T60, and NCF60 plates, respectively, to terminate the reaction.
All sample plates were shaken and centrifuged for 10 min. 80 μL of the supernatant of a test sample was taken and diluted into 240 μL of a mixture of acetonitrile and water (1:9, V/V) containing 0.1% formic acid for LC-MS/MS analysis.
By calculating the corresponding time point and the remaining percentage of a compound, the half-life T1/2 and clearance rate CLint(liver) of the compound in human liver microsome metabolism were obtained.

human HPK1 = human HPK1 (Homo sapiens (Human), UniProt Q92918); assay: Kinase activity assay using ADP-Glo method (Method 2); format: biochemical; details: HPK1 enzyme concentration 0.1 nM; ATP concentration 10 μM
Description: Method 2: The IC50 value was assayed by the kinase activity assay using ADP-Glo method to evaluate the inhibitory ability of a test compound on human HPK1.
Enzyme buffer conditions: 50 mM Hepes (pH 7.5), 10 mM MgCl2, 1 mM EGTA, 0.01% Brij35, 2 mM DTT. […]
as §1, with “4 μL of ADP-Glo was transferred to the 384 reaction plate, and centrifuged at 1000 rpm/min for 1 min.” left out, “8 μL of detection solution was transferred to the 384 reaction plate, and centrifuged at 1000 rpm/min for 1 min.” left out
as §2

human GLK, sequence (Q8IVH8 whole entry): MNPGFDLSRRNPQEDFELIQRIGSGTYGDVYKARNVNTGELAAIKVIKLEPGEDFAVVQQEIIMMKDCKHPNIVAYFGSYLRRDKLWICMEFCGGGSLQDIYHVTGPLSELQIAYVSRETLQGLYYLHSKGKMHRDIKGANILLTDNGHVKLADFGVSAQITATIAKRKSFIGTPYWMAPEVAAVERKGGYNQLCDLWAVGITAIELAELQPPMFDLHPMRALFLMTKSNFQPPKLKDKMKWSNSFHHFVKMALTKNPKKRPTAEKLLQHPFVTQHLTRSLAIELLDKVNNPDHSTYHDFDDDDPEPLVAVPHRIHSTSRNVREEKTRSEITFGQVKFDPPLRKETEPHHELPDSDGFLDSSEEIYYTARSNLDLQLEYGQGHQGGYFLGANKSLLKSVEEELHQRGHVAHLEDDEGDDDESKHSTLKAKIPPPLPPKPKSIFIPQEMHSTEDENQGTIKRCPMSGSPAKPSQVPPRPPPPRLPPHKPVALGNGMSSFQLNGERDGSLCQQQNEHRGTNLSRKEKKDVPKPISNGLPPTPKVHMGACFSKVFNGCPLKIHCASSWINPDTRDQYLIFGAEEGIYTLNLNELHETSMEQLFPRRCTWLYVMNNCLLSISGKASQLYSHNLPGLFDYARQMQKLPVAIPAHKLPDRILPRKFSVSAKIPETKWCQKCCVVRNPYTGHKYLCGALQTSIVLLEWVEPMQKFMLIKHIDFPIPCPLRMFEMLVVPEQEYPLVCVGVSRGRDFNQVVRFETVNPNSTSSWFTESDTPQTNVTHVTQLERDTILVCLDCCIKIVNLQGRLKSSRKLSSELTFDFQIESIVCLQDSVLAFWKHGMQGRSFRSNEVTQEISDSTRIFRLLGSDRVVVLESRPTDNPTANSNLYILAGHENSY
human HPK1, sequence (Q92918 whole entry): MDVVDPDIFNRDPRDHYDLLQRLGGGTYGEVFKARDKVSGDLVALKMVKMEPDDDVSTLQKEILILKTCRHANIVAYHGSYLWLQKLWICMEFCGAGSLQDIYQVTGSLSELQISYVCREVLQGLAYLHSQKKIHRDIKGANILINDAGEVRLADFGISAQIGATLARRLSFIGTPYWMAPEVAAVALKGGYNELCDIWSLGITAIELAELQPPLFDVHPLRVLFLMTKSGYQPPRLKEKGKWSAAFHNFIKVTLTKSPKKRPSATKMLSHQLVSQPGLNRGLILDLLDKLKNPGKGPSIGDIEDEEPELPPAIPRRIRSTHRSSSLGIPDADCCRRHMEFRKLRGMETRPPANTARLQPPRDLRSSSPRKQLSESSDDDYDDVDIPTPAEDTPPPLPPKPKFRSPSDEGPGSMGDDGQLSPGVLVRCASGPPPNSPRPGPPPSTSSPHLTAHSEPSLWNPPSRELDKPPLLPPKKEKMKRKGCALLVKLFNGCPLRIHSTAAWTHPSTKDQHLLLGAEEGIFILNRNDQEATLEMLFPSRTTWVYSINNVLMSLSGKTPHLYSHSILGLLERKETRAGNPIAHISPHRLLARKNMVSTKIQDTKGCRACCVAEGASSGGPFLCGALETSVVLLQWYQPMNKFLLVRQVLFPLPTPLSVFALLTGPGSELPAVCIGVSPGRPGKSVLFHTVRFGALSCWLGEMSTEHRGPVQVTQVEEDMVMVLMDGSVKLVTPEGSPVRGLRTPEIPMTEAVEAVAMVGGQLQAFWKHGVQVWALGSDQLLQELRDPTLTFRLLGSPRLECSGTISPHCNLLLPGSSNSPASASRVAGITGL

Row | SMILES | pIC50 (human GLK) | CLint(liver) [1] | T1/2 [1] | pIC50 (human HPK1) | CLint scaled at 1 μM [1] | half-life at 1 μM [1]
1 | Cn1ccc2c(-c3ncc(Nc4ccc5c(n4)OC[C@@H]4COCCN54)c4c3CNC4=O)ccnc21 [Compound 4] | 6.23 | 35 mL/min/kg | 36 min | 9.21 |  | 
2 | O=C1NCc2c(-c3cnc4cc(F)ccn34)ccc(Nc3ccc4c(n3)OC[C@@H]3COCCN43)c21 [Compound 8] | 6.81 |  |  | 8.70 | 37 mL/min/kg | 34 min
